Experiments:
human erythrocytes = experiment: Human blood hemolysis; format: cell-based; details: increasing concentrations; result in words
Procedure: Human blood hemolysis. Hemolytic activity of retinoids on human erythrocytes was evaluated using a previously described method with modifications (Rajamuthiah, R. et al. A defensin from the model beetle Tribolium castaneum acts synergistically with telavancin and daptomycin against multidrug resistant Staphylococcus aureus. PLoS ONE 10, e0128576 (2015)). 10% human erythrocytes were purchased from Rockland Immunochemicals (Limerick, Pa., USA). The erythrocytes were diluted to 4% with PBS, and 100 μl was added to 100 μl of two-fold serial dilutions of compounds in PBS, 0.2% DMSO (negative control), or 2% Triton-X 100 (positive control) in a 96-well plate. The 96-well plate was incubated at 37° C. for 1 h and then centrifuged at 500×g for 5 min. 100 μl of the supernatant was transferred to a fresh 96-well plate, and absorbance of supernatants was measured at 540 nm. Percent hemolysis was calculated using the following equation: (A540 nm of compound treated sample—A540nm of 0.1% DMSO treated sample)/(A540 nm of 1% Triton X-100 treated sample—A540nm of 0.1% DMSO treated sample)×100. HC50 (concentration of a compound causing 50% hemolysis) was determined using SigmaPlot 10.0 (Systat Software Inc., San Jose, Calif., USA).
In a 96 well plate, 50 μl of 2% human erythrocytes suspended in PBS was added to 50 μl of compounds serially diluted in PBS and incubated at 37° C. for 1 hour. The plate was then centrifuged at 500 G for 5 minutes and 50 μl of the supernatant from each well of the assay plate was transferred to a fresh 96 well plate. Hemolysis was confirmed by both visual observation and measuring absorbance at 540 nm. Treatment was conducted in triplicate.
2% human erythrocytes were treated with two-fold serially diluted concentration of the retinoids for 1 h at 37° C. A sample treated with 1% Triton-X 100 was used as the control for 100% hemolysis. Results are shown as means±s.d.; n=3.

S. aureus MW2 = format: cell-based, Staphylococcus aureus; details: for fold increase in resistance: mutations in graS, yjbH, and manA; for fold increased resistance of CD437-resistant mutants: presumptive CD437-resistant SP1/SP2 mutants
Procedure: Development of resistant mutants by serial passage was conducted as previously described (Friedman, L. et al. Genetic changes that correlate with reduced susceptibility to daptomycin in Staphylococcus aureus. Antimicrob. Agents Chemother. 2006, 50, 2137-2145). […] The extended gradient was created by 2-fold serial dilutions with cation-adjusted Muller-Hinton media (CaMH) from three different starting concentrations: 80, 96, and 128 μg/ml. […] After incubating the plate at 37° C. for 24 h, OD600 nm was measured by a spectrophotometer (SpectraMax M2, Molecular Devices). Bacterial growth was defined as OD600 nm≥0.1. Two μl of the bacterial culture at the highest drug concentration that permitted bacterial growth was diluted 1,000-fold in CaMH, and the diluted culture was used as inoculum for the next passage. The rest of the culture was stored in 16% glycerol at −80° C.
Sequencing of PCR products were conducted by GENEWIZ (South Plainfield, N.J., USA). The passage day when the mutations occurred was identified by colony PCR using three colonies from each glycerol freezer stock, followed by sequencing of the PCR products. The passage day when the susceptibility to the retinoids changed was identified by repeating MIC determinations using overnight cultures from three colonies from each glycerol freezer stock.

S. aureus = experiment: Disc clearing assay; format: cell-based, Staphylococcus aureus; details: result in words
Procedure: Disc clearing assay: The disc diffusion test was performed on Mueller Hinton (MH) agar plates for bacterial cultures and yeast extract, peptone, dextrose (YPD) for fungal cultures. The assay was repeated 3 times. Discs were soaked in 10 μl of either DMSO or 10 mg/ml compound stock solution and air-dried. Three hundred microliters of an overnight culture of bacteria or fungi were spread on plates. After completely drying the agar plate in a laminar flow hood, DMSO or compound impregnated discs were overlaid on the plate and incubated at 35° C. for 18 hrs.
The disc diffusion test was carried out in triplicate on cation-adjusted Miller-Hinton agar. 6 mm discs were impregnated with 50 μg of compounds and air-dried. Three hundred microliters of an overnight S. aureus MW2 culture was spread on an agar plate and air-dried. The antimicrobial discs were overlaid on the plate and incubated at 37° C. for 20 hrs.

[1] = system: S. aureus MW2 (MRSA) in neutropenic mouse thigh; format: in vivo
Procedure: Deep-seated mouse thigh infection model for evaluating drug efficacy. A previously described protocol to mimic a chronic, deep-tissue infection was used with modifications (See, e.g., Conlon, B. P. et al. Activated ClpP kills persisters and eradicates a chronic biofilm infection. Nature 503, 365-370 (2013)). Six-week-old female CD1 ICR outbred mice (20-25 g) were obtained from Charles River Laboratories. To make mice neutropenic, 150 mg/kg and 100 mg/kg of cyclophosphamide were administered intraperitoneally (i.p.) at 4 days and 1 day before infection, respectively. On the day of infection, ˜10^7 cells of stationary-phase S. aureus MW2 resuspended in 50 μl saline were injected to the right thigh of each mouse. […] Control mice were injected with 200 μl of 10% Kolliphor EL/ethanol in saline i.p. every 12 h for 3 days. After euthanizing mice at 96 h post-infection, blood was collected by cardiac puncture and the infected thighs were aseptically excised. All samples were stored at 4° C. until use. Serum was analyzed for alanine aminotransferase and urea nitrogen content with commercially available kits, following the manufacturer's protocol (Pointe Scientific, Canton, Mich., USA). Thighs were homogenized in PBS and the number of MRSA in homogenates was enumerated by serial dilution and spot-plating on TSA plates, and bacterial load was recorded as CFU/g thigh tissue. […] Statistical significance among each group was analyzed by one-way ANOVA with post-hoc Tukey test using PASW Statistics 18 (SPSS Inc. Chicago, Ill., USA).
At 12 h after the last treatment, mice were euthanized and their thighs were excised and homogenized. […] Statistical differences between control and antibiotic treatment groups were analyzed by one-way ANOVA and post-hoc Tukey test (***p<0.001).
At 12 h after the last treatment, mice were euthanized, blood was collected and analyzed for ALT and BUN. […] Control and antibiotic treatment were analyzed by one-way ANOVA and post-hoc Tukey test to confirm a lack of significant difference

SMILES	toxicity (hemolysis) to erythrocytes (human erythrocytes)	fold increase in resistance (S. aureus MW2) [fold]	fold increased resistance of CD437-resistant mutants (S. aureus MW2) [fold]	zone of inhibition, S. aureus (S. aureus)	MRSA cells killed in thigh ([1]; CD437 20 mg/kg i.p. alone, every 12 h for 3 days) [%]	persisters killed in thigh, combination ([1]; CD437 20 mg/kg i.p. plus gentamicin 30 mg/kg s.c., every 12 h for 3 days) [%]	serum levels of ALT or BUN ([1]; mouse, in vivo, ip, 20 mg/kg)
O=C(O)/C=C/c1ccc(-c2ccc(O)c(C34CC5CC(CC(C5)C3)C4)c2)cc1 [Adarotene, (2E)-3-(4′-Hydroxy-3′-tricyclo[3.3.1.13,7]dec-1-yl[1,1′-biphenyl]-4-yl)-2-propenoic acid]	not toxic	1.5	2	–	–	–	–
O=C(O)c1ccc2cc(-c3ccc(O)c(C45CC6CC(CC(C6)C4)C5)c3)ccc2c1 [CD437, 6-(4-hydroxy-3-tricyclo[3.3.1.13,7]dec-1-ylphenyl)-2-naphthalenecarboxylic acid]	–	–	–	inhibits the growth	~90	~99	did not have elevated serum levels
O=C(O)c1ccc(-c2ccc3cc(O)c(C45CC6CC(CC(C6)C4)C5)cc3c2)cc1 [CD1530, 4-(6-hydroxy-7-tricyclo[3.3.1.13,7]dec-1-yl-2-naphthalenyl)-benzoic acid]	not toxic	1.5	2	–	–	–	–
